Tests used:
[1] = test system: Fasciculus retroflexus (Fr) structure; experiment: Mouse brain analysis: Fr structure after cocaine treatment; details: wild-type mice, cocaine 25 mg/kg/day for three months, compared to control wild-type mice
Method: Cocaine treated mice were C57BL/6j mice treated with cocaine at 10 a.m. with a dosage of 25 mg/kg/day for three months while the control mice (Hausp^WT) and Hausp^K444R mice were treated with saline. All mice were housed under conditions of controlled humidity (55±10%) and temperature (22±2° C.), with a reversed light cycle in this experiment.
After the above treatments, all organs were obtained after mouse heart perfusion by saline, and fixed by 4% paraformaldehyde solution for 24 h for H&E, LFB, Silver, Masson's trichrome staining and immunohistochemistry (IHC). Fresh tissues were immediately homogenized in T-PER™ by tissue homogenizer (HT mini homogenizer, OPS Diagnostics LLC, USA) for Western blot analysis.
Mouse brains were processed following SHIELD processing protocol according to Park, Y. G. et al. 2019. Mice were perfused with ice-cold PBS and then with the SHIELD perfusion solution (ice-cold 1× PBS containing 4% (w/v) PFA and GE38 (polyglycerol 3-polyglycidyl ether) supernatant). Collected brains were incubated in the same perfusion solution at 4° C. for two days. […] Images were reconstructed to a multi-channel-z stack using Imaris file converter, and the regions of the whole brain, habenula region were masked and quantified using the surface function in Imaris software version 9.5.

[2] = test system: locomotion activity induced by cocaine; experiment: Locomotion activity (open field test) of cocaine induced mice; type: in vivo; details: compound 10 mg/kg 10 mins before cocaine 25 mg/kg i.p.; FIGS. 12A to 12C
Text: 8 mice from Preparation Example 2 were randomly chosen to conduct Locomotion Activity I. The open fields using white acrylic chambers measured 50 cm (length)×50 cm (width)×38 cm (height) were made from white high density and non-porous plastics. Once the Video Tracking software (ANY-maze, Stoelting Co, IL, USA) was opened, the cursor was moved to the “Single-Subject Tracking” option located under the “Data Acquisition” tab and single-clicked to open this option. The software package used in this protocol allows the tracking of up to 6 individual mice at one time. The mice were brought to open fields to acclimate to the procedure room for 30 minutes (min) prior to starting the test. The tracking plot of randomly chosen 6 mice was recorded and analyzed by ANY-maze software.
(§1) Conditioned place preference (CPP) is a classical conditioning paradigm used in behavioral neuroscience to study the rewarding and aversive properties of drugs or other stimuli. It involves associating a particular environment or location with the experience of a rewarding or aversive stimulus, such as drugs, food, or electric shock. In CPP experiment, mice were first trained to associate one compartment of a box and then, they were placed in the neutral compartment and allowed to freely explore both compartments, and animals' preference for one compartment over the other was measured. After vehicle/Compound 2-2 (10 mg/kg)/Compound 2-3 (10 mg/kg)/Compound 3-3 (10 mg/kg) treatment for 10 mins, the well-trained mice were administrated with cocaine (25 mg/kg, i.p.) for 30 mins. The content of the vehicle is 0.5% DMSO, 25% PEG-300, 4% Tween-80, and 70.5% saline. The locomotion activity experiment was the same as the method of open field test described in Experiment 2.

[3] = test system: cocaine conditioned place preference; experiment: Conditioned place preference (CPP) test induced by cocaine; type: in vivo, mice; details: compound 10 mg/kg 10 mins before cocaine 25 mg/kg i.p.; FIG. 12D
Text: as §1

[4] = test system: lever press induced by cocaine; experiment: Lever press test (cocaine self-administration); type: in vivo, mice; details: 10 mg/kg intraperitoneally 10 min prior to cocaine self-administration; for cumulative cocaine reinforcements: FIG. 13G; for latency to first response in mice treated with cocaine: FIG. 13H; for lever press frequencies induced by cocaine treatment: FIGS. 13A to 13F
Method: Mice were anesthetized with isoflurane (induction and maintenance at 4%-5%) for surgical implantation of a jugular vein catheter connected to a head-mounted entry port. Briefly, the right jugular vein was exposed, and the catheter tubing was inserted and secured to the vein. The catheter was passed under the skin to an incision on the head, and the port was secured to the skull with dental cement anchored by screws. Mice were given buprenorphine (0.05-0.10 mg/kg, intraperitoneal.) for analgesia and allowed to recover for 7-10 days before beginning self-administration. Catheter patency was maintained by daily infusion of 100 μl heparin (120 U/μl) through the catheter and treated with Cefazolin, 200 mg/kg, subcutaneously, to prevent bacterial infections.
The lever press test was done in extra wide mouse operant chambers with a modified top (Med Associates, VT, USA). The chamber contained a retractable lever, a food pellet receptacle connected to a pellet dispenser, with a stimulus light above the pellet receptacle, and contained a house light. Cocaine was delivered by a syringe pump located outside the chamber, and the drug delivery tubing was connected to the mice through a swivel (Instech, Plymouth Meeting, PA, USA) and the swivel arm connected on top of the chamber to allow free movement of the mice during self-administration. All the sessions were remotely operated and recorded by MED-PC V software (Med Associates, VT, USA). Mice were pre-trained with food through pressing the levers and were food-restricted during the study. After training, mice were provided ad libitum access to water and food.
Self-administration sessions took place once daily during the light-dark cycle for 14 consecutive days. Before starting the study, mice were allowed to acclimate to the housing for approximately 3 days. The availability of cocaine reward was indicated by illumination of the house light and pressing levers. […] Each infusion was paired with a cue (1 s illumination of the stimulus green light) followed by a 10-second time-out signaled by turning off the house light. […] Each chamber was operated under a 3-hour session, or until mice received 100 infusions (20 mg/kg) of cocaine (to prevent cocaine overdose). No treatment groups were implanted with a catheter and placed in the operant chambers with identical cues but not connected to the syringe pump and received no reward for pressing the active levers. Vehicle or inhibitor (Compound 2-2, Compound 2-3, or Compound 3-3) with a dosage of 10 mg/kg was injected intraperitoneally for 10 min prior to cocaine self-administration. The content of the vehicle is 0.5% DMSO, 25% PEG-300, 4% Tween-80, and 70.5% saline. Mice met criteria for acquisition of self-administration when they: (1) self-administered at least 30 infusions in a session; (2) >85% of responses were on the active […]; and (3) had no more than 20% variation in number of infusions between sessions. The lever press frequency and number within 3 hours indicate the cocaine addiction symptom.

SIAH1 = target: T1, SIAH1 (Homo sapiens, UniProt Q8IUQ4); experiment: E3-ligase auto ubiquitination assay (K48-linked polyubiquitination of HAUSP mediated by SIAH1); type: biochemical; details: 37° C., 1 hour, Western blot with Ub-K48 antibody, compared to vehicle; FIG. 14A, 14B
T1 sequence (Q8IUQ4 1-282): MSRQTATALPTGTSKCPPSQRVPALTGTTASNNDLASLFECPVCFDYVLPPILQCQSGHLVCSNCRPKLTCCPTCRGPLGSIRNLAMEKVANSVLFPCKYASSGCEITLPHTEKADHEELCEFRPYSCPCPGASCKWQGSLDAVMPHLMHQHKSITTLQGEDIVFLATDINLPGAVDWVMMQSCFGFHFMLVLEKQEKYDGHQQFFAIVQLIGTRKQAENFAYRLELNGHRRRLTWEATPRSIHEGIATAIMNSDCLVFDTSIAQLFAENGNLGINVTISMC
Method: SIAH1 mediates the K48-linked polyubiquitination of HAUSP. Therefore, for the ubiquitination assay, SIAH1 was incubated in the solution (0.25 mg/1 ml, total 100 μg) containing 20 mM Tris-HCl buffer (pH 8.0), 100 mM NaCl, 1 mM DTT and 40% glycerol and HAUSP (50 μg) was in 50 mM HEPES pH 7.5, 100 mM NaCl, 1 mM TCEP (tris (2-carboxyethyl) phosphine) buffer. […] The E3-ligase auto ubiquitination assay was performed by E3 Ligase Auto-Ubiquitilylation Assay Kit (Abcam, ab139469, UK).

[5] = test system: heart rate and blood pressure induced by cocaine; experiment: Heart rate and blood pressure of cocaine induced mice; type: in vivo, C57BL/6JNar1 mice; details: cocaine 25 mg/kg/day i.p. three months, then compound 25 mg/kg/day three months; FIG. 15
Method: (§2) C57BL/6JNar1 mice of 6-months age were used in this Experiment. This Experiment included four groups: the normal control group (saline group), the cocaine+saline group, the cocaine+Compound 2-2 group, and the cocaine+Compound 3-3 group. There were 7 mice in the cocaine+Compound 2-2 group and 6 mice each in the rest of the groups. The normal control group received no experimental treatment. […] Heart rate, systolic blood pressure and mean blood pressure of all four groups were measured with a device (MK-2000ST, NP-NIBP Monitor for Mice & Rats, Muromachi, Japan) and the results thereof were shown in FIG. 15. Moreover, the Fr structure of all four groups was measured according to the method of Experiment 7 and the results thereof were shown in FIG. 16 and FIGS. 17A and 17B.

[6] = test system: Fasciculus retroflexus (Fr) structure; experiment: Fr structure of cocaine induced mice after treatment; type: in vivo, C57BL/6JNar1 mice; details: cocaine 25 mg/kg/day i.p. three months, then compound 25 mg/kg/day three months; for length of Fr diminished by cocaine treatment: FIG. 16, 17A; for volume of Fr diminished by cocaine treatment: FIG. 16, 17B
Method: as §2

[7] = test system: HAUSP levels in SH-SY5Y cells; experiment: Western blot of HAUSP in cocaine-treated SH-SY5Y cells; details: cocaine 200 μM with inhibitor, 24 hr; for HAUSP levels decreased by cocaine in SH-SY5Y cells (western blot): FIG. 14C; for relative protein expression ratios of HAUSP normalized with β-actin: quantified with ImageJ, FIG. 14D

Compound	diameter of Fr ([1]; FIG. 10D)	length of Fr ([1]; FIG. 10E)	increased locomotion activity or increased distance traveled induced by cocaine treatment [2]	time spent in cocaine paired compartments (CPP test) [3]	cumulative cocaine reinforcements [4]	latency to first response in mice treated with cocaine [4]	lever press frequencies induced by cocaine treatment [4]	inhibition of K48-linked polyubiquitination of HAUSP mediated by SIAH1 (SIAH1)	blood pressure induced by cocaine [5]	heart rate induced by cocaine [5]	length of Fr diminished by cocaine treatment [6]	volume of Fr diminished by cocaine treatment [6]	HAUSP levels decreased by cocaine in SH-SY5Y cells (western blot) [7]	relative protein expression ratios of HAUSP normalized with β-actin [7]
COC(=O)[C@H]1[C@@H](OC(=O)c2ccccc2)C[C@@H]2CC[C@H]1N2C [cocaine]	decreased	decreased												
COCCNC(=O)c1ccc(Cl)cc1NC(=O)c1ccccc1C [Compound 2-2, 4-Chloro-N-(2-methoxyethyl)-2-(2-methylbenzamido) benzamide]			decreased	decreased	decreased	increased	decreased	can inhibit	decreased	decreased	partially rescued	partially rescued	can restore	can restore
COCCNC(=O)c1ccccc1NC(=O)c1c(C)cc(C)cc1C [Compound 3-3, N-(2-((2-Methoxyethyl)carbamoyl)phenyl)-2,4,6-trimethylbenzamide]			decreased	decreased	decreased	increased	decreased	can inhibit	decreased	decreased	partially rescued	partially rescued	can restore	can restore
COCCNC(=O)c1ccc(Cl)cc1NC(=O)c1c(C)cc(C)cc1C [Compound 2-3, N-(5-Chloro-2-((2-methoxyethyl)carbamoyl)phenyl)-2,4,6-trimethylbenzamide]			decreased	decreased	decreased	increased	decreased	can inhibit					can restore	can restore
